Data from article PMC9927415, “Tyrosine Kinase Inhibitors Display Potent Activity against Cryptosporidium parvum” (Microbiology Spectrum, 2022).

Experiments:
Test in all cases: KINOMEscan competitive binding, whole panel
[1] = molecular target: T1, panel of 203 kinases (Homo sapiens, UniProt Q13043); conditions: 10 µM, n=1; kinase MST1; read-out: Percent inhibition MST1
T1 construct: purchased DiscoverX (KINOMEscan)
T1 sequence (Q13043 1-487): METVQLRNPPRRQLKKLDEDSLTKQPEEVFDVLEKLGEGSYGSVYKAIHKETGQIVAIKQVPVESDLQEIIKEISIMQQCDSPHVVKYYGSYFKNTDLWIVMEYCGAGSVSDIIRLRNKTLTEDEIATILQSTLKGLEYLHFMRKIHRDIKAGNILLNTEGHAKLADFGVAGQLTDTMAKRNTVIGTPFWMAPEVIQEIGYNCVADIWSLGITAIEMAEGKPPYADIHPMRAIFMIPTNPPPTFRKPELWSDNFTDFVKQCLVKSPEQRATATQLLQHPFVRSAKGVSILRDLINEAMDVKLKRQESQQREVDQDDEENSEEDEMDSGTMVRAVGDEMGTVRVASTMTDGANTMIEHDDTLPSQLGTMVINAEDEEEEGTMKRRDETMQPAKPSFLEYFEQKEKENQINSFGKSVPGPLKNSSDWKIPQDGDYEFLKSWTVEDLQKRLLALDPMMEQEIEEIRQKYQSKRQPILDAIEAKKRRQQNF
Summary of the method: (§1)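 T7 phage-fused kinases; compound displaces immobilized ATP-site probe ligand; bead-bound kinase quantified; % inhibition reported.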

[2] = molecular target: T2, panel of 203 kinases (Homo sapiens, UniProt P54762); conditions: 10 µM, n=1; kinase EPHB1; read-out: Percent inhibition EPHB1
T2 construct: purchased DiscoverX (KINOMEscan)
T2 sequence (P54762 18-984): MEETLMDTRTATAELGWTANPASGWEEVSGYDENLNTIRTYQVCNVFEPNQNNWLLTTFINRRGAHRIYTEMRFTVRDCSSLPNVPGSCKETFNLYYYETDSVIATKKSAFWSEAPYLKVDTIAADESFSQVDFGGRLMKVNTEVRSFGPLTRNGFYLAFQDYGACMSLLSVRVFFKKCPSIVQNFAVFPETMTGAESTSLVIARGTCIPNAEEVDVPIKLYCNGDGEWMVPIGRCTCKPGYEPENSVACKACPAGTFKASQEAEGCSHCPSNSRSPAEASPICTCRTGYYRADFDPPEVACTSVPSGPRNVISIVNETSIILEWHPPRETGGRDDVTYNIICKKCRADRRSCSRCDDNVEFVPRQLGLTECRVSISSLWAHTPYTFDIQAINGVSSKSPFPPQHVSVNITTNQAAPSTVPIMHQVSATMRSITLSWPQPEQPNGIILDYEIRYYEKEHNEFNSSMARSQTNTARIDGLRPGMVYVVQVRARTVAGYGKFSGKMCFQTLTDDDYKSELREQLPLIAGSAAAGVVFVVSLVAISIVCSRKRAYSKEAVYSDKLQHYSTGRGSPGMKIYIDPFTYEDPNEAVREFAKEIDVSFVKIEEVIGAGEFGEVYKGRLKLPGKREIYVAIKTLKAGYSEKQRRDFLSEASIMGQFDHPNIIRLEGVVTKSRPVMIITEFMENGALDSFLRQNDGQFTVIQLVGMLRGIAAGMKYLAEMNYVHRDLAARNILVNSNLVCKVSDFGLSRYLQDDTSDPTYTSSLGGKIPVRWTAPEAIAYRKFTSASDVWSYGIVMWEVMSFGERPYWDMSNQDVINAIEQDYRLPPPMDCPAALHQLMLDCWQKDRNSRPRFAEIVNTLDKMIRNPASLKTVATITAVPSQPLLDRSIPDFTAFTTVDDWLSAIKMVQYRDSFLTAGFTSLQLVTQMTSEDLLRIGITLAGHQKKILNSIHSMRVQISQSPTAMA
Summary of the method: as §1

[3] = molecular target: T3, panel of 203 kinases (Homo sapiens, UniProt Q9HAZ1); conditions: 10 µM, n=1; kinase CLK4; read-out: Percent inhibition CLK4
T3 construct: purchased DiscoverX (KINOMEscan)
Summary of the method: as §1

[4] = molecular target: T4, panel of 203 kinases (Homo sapiens, UniProt P29322); conditions: 10 µM, n=1; kinase EPHA8; read-out: Percent inhibition EPHA8
T4 construct: purchased DiscoverX (KINOMEscan)
T4 sequence (P29322 28-1005): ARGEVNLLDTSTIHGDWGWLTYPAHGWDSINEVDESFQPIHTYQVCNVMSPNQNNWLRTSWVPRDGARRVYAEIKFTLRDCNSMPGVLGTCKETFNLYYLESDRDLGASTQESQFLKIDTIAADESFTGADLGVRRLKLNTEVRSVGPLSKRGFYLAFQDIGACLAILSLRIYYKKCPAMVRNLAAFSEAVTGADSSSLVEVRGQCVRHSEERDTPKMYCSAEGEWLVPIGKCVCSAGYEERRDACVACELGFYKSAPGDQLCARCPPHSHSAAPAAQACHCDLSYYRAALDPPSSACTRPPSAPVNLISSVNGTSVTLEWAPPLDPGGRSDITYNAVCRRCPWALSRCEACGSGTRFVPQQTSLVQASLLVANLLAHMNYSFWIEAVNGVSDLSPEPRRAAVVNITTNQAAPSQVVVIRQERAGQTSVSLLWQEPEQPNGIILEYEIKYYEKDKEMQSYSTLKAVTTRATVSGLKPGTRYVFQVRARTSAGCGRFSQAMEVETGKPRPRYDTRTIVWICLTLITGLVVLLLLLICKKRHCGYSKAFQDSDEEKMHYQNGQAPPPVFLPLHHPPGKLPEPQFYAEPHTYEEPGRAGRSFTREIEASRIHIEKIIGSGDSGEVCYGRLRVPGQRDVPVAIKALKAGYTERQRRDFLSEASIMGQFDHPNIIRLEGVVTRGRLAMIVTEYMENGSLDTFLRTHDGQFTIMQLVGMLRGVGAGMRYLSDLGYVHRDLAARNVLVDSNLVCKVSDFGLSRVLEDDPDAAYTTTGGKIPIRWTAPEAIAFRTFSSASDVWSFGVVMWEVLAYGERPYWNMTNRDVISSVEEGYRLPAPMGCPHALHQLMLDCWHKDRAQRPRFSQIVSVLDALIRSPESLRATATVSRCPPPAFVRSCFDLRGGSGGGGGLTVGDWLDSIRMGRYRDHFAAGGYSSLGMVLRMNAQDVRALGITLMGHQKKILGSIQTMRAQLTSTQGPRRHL
Summary of the method: as §1

[5] = molecular target: T5, panel of 203 kinases (Homo sapiens, UniProt P42684); conditions: 10 µM, n=1; kinase ABL2; read-out: Percent inhibition ABL2
T5 construct: purchased DiscoverX (KINOMEscan)
Summary of the method: as §1

[6] = molecular target: T6, panel of 203 kinases (Homo sapiens, UniProt P49840); conditions: 10 µM, n=1; kinase GSK3A; read-out: Percent inhibition GSK3A
T6 construct: purchased DiscoverX (KINOMEscan)
Summary of the method: as §1

T5 sequence (P42684 whole entry): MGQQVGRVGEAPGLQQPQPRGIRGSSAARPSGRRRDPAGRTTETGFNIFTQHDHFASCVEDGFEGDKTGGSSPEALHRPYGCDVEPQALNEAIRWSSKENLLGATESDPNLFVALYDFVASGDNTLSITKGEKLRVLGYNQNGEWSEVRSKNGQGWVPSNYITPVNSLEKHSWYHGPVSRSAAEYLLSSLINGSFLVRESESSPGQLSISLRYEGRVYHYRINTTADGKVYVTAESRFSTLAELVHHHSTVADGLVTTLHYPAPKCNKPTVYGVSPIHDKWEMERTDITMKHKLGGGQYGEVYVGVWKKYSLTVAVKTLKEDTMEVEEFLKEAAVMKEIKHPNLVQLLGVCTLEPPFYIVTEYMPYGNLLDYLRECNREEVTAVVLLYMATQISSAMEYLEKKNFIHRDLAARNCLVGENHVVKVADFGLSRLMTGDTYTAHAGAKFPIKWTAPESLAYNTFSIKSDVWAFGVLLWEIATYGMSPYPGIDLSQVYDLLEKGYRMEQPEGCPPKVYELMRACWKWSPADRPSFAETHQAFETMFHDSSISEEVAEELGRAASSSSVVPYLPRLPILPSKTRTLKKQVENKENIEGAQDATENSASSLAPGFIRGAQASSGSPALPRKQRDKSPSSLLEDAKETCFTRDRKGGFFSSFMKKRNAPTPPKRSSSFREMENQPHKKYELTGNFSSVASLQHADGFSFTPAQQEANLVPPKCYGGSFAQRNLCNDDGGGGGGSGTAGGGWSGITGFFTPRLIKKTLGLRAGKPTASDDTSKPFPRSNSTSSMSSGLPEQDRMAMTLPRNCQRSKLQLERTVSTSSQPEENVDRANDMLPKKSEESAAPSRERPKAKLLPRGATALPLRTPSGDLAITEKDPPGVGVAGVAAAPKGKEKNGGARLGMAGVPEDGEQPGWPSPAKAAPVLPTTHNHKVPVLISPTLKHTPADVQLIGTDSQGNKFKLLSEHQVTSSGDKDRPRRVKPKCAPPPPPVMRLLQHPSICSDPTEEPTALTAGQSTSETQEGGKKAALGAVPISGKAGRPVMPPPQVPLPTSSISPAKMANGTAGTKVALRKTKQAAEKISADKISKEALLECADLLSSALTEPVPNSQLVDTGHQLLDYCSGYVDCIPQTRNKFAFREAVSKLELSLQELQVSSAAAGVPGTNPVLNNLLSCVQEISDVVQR
T6 sequence (P49840 whole entry): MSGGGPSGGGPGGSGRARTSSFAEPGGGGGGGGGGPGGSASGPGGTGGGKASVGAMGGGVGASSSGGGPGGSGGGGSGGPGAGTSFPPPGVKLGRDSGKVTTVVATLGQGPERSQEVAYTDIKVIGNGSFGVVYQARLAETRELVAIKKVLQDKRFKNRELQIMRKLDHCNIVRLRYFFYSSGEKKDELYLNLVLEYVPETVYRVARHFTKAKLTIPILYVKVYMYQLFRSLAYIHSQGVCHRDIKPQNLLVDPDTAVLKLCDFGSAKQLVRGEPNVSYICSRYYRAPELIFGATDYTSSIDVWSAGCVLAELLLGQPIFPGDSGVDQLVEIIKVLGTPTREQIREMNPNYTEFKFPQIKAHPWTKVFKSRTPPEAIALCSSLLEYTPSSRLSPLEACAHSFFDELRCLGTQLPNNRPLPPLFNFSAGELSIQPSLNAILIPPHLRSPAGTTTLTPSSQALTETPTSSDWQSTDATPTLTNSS
T3 sequence (Q9HAZ1 whole entry): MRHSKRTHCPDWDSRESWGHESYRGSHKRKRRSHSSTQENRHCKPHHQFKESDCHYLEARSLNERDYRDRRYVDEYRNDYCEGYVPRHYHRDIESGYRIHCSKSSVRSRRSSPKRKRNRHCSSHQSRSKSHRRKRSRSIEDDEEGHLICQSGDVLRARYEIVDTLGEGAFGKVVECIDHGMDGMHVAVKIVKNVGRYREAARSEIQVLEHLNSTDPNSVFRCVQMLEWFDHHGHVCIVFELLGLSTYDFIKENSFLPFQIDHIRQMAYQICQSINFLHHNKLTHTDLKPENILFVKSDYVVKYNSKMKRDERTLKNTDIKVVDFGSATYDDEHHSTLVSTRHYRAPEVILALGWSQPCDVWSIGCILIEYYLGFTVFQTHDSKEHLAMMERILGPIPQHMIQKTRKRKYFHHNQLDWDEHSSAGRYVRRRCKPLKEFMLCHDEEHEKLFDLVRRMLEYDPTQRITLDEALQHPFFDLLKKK

Q: Which inhibition at 10 µM [1] does the source give for `CN1CCN(c2ccc(Nc3nccc(-c4cnn5ncccc45)n3)cc2C#N)CC1` [Compound 1] here?
A: 99.3%

Q: What about the inhibition at 10 µM [2] of the same compound?
A: 99.3%

Q: And the inhibition at 10 µM [3]?
A: 99.5%

Q: And the inhibition at 10 µM [4]?
A: 0%

Q: What about the inhibition at 10 µM [5] of the same compound?
A: 95%

Q: What about the inhibition at 10 µM [6] of the same compound?
A: 100%

Q: For `COc1ccc(Nc2nccc(-c3cnn4ncccc34)n2)cc1` [Compound 2], which inhibition at 10 µM [1] is on record?
A: 0%

Q: And the inhibition at 10 µM [2]?
A: 99.8%

Q: What about the inhibition at 10 µM [3] of the same compound?
A: 98.7%

Q: What about the inhibition at 10 µM [4] of the same compound?
A: 0%

Q: And the inhibition at 10 µM [5]?
A: 92.5%

Q: What about the inhibition at 10 µM [6] of the same compound?
A: 100%

Q: What does the source list for `Cc1ccc(O)cc1Nc1ccnc(Nc2cccc(C(N)=O)c2)n1` [Compound 3]?
A: inhibition at 10 µM [1]: 0%; inhibition at 10 µM [2]: 100%; inhibition at 10 µM [3]: 0%; inhibition at 10 µM [4]: 100%; inhibition at 10 µM [5]: 100%; inhibition at 10 µM [6]: 69.7%

Q: For `Cc1ccc(O)cc1N(C)c1ccnc(Nc2cccc(S(N)(=O)=O)c2)n1` [Compound 4], which inhibition at 10 µM [1] is on record?
A: 0%

Q: What about the inhibition at 10 µM [2] of the same compound?
A: 100%

Q: And the inhibition at 10 µM [3]?
A: 0%

Q: And the inhibition at 10 µM [4]?
A: 100%

Q: What about the inhibition at 10 µM [5] of the same compound?
A: 100%

Q: And the inhibition at 10 µM [6]?
A: 91.3%

Q: For `Fc1cccc(COc2ccc(Nc3ncnc4c3CN(CCN3CCOCC3)CC4)cc2Cl)c1` [Compound 6], which inhibition at 10 µM [1] is on record?
A: 0%

Q: What about the inhibition at 10 µM [2] of the same compound?
A: 0%

Q: And the inhibition at 10 µM [3]?
A: 0%

Q: What about the inhibition at 10 µM [4] of the same compound?
A: 0%

Q: What about the inhibition at 10 µM [5] of the same compound?
A: 0%

Q: What about the inhibition at 10 µM [6] of the same compound?
A: 0%

Q: How did the inhibition at 10 µM [1] turn out when `COc1cc(Nc2nccc(-c3sc(N)nc3-c3cccc(NC(=O)c4c(F)cccc4F)c3)n2)cc(OC)c1OC` [Compound 7] was run?
A: 97.4%

Q: What about the inhibition at 10 µM [2] of the same compound?
A: 100%

Q: What about the inhibition at 10 µM [3] of the same compound?
A: 0%

Q: What about the inhibition at 10 µM [4] of the same compound?
A: 100%

Q: And the inhibition at 10 µM [5]?
A: 100%

Q: And the inhibition at 10 µM [6]?
A: 0%

Q: For `C[C@@H](Oc1cc(-c2cnc3ccccn23)sc1C(N)=O)c1ccccc1Cl` [Compound 8], which inhibition at 10 µM [1] is on record?
A: 0%

Q: What about the inhibition at 10 µM [2] of the same compound?
A: 0%

Q: And the inhibition at 10 µM [3]?
A: 81%

Q: And the inhibition at 10 µM [4]?
A: 0%

Q: And the inhibition at 10 µM [5]?
A: 0%

Q: And the inhibition at 10 µM [6]?
A: 0%

Q: Which results are given for `c1ccc(COc2cccc(-c3ccnc4[nH]ccc34)c2)cc1` [Compound 9]?
A: inhibition at 10 µM [1]: 0%; inhibition at 10 µM [2]: 0%; inhibition at 10 µM [3]: 0%; inhibition at 10 µM [4]: 0%; inhibition at 10 µM [5]: 0%; inhibition at 10 µM [6]: 0%

Q: How did the inhibition at 10 µM [1] turn out when `Clc1ccc(Nc2ncc(-c3ccccc3)s2)cc1` [Compound 10] was run?
A: 0%

Q: And the inhibition at 10 µM [2]?
A: 0%

Q: And the inhibition at 10 µM [3]?
A: 0%

Q: And the inhibition at 10 µM [4]?
A: 0%

Q: What about the inhibition at 10 µM [5] of the same compound?
A: 0%

Q: What about the inhibition at 10 µM [6] of the same compound?
A: 0%

Q: Which results are given for `Nc1ncc2c(-c3ccncc3)c[nH]c2n1` [Compound 11]?
A: inhibition at 10 µM [1]: 0%; inhibition at 10 µM [2]: 81.9%; inhibition at 10 µM [3]: 93.4%; inhibition at 10 µM [4]: 0%; inhibition at 10 µM [5]: 0%; inhibition at 10 µM [6]: 0%
